{
  "source": "patent US5807878A",
  "about": "“Tetrasubstituted imidazoles” (Uclaf; Roussel, priority 1994, dated 1998)",
  "key": {"[1]": {"target": "T1, AT1 receptor of angiotensin II (Rattus norvegicus, UniProt P25095)", "T1 construct": "A fresh membrane preparation obtained from rat's liver is used; from tissue; host or cells: rat liver membranes", "T1 sequence (P25095 1-359)": "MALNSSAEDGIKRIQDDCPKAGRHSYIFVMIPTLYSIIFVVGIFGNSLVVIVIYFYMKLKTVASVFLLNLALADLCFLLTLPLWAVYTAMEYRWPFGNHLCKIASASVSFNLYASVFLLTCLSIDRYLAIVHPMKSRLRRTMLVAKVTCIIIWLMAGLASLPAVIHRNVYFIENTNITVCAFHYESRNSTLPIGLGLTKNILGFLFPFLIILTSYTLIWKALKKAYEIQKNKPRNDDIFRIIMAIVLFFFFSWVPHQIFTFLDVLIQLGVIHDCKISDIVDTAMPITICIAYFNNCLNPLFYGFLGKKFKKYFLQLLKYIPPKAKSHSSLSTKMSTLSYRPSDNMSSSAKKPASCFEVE", "assay": "Test on the AT1 receptor of angiotensin II (displacement of 125I angiotensin II, rat liver membranes)", "type": "binding", "conditions": "25° C., 150 minutes, pH 7.4", "experimental": "1--Test on the AT1 receptor of angiotensin II\n(§1) A fresh membrane preparation obtained from rat's liver is used. The tissue is ground up in a polytron in a 50 mM Tris buffer pH 7.4, the grinding is followed by 3 centrifugations at 30,000 g for 15 minutes with intermediate take up of the pellets in the Tris buffer pH 7.4.\nThe last pellets are suspended in an incubation buffer (20 mM Tris, 135 mM NaCl, 10 mM KCl, 5 mM glucose, 135 mM MgCl2, 0.3 mM PMSF, 0.1 mM bacitracin, 0.1% lysozyme).\n(§2) 1 ml aliquoted fractions are distributed in glass tubes and ^125 I angiotensin II (25,000 DPM/tube) and the product to be studied are added. (The product is first tested at 3×10^-5 M three times). When the tested product displaces more than 50% of the radioactivity specifically bound to the receptor, it is tested again according to a range of 7 concentrations in order to determine the concentration which inhibits by 50% the radioactivity specifically bound to the receptor. In this way the 50% inhibitory concentration is determined).\n(§3) The non-specific bond is determined by the addition of the product of Example 94 of the European Patent 0,253,310, at 10^-5 M (three times). After incubation at 25° C. for 150 minutes, placing in a water bath at 0° C. for 5 minutes, filteration under vacuum and rinsing with Tris buffer pH 7.4, the radioactivity is counted in the presence of a scintillating solid.\n(§4) The result is expressed directly as the 50% inhibitory concentration (IC50), that is to say as the concentration of product studied, expressed in nM, necessary to displace 50% of the specific radioactivity fixed to the receptor studied."}, "[2]": {"target": "T2, AT2 receptor of angiotensin II (Oryctolagus cuniculus, UniProt G1T351)", "T2 construct": "A fresh membrane preparation obtained from rabbit's uterus is used; from tissue; host or cells: rabbit uterus membranes (estradiol-pretreated, homogenate preincubated with 10 mM dithiothreitol)", "T2 sequence (G1T351 1-363)": "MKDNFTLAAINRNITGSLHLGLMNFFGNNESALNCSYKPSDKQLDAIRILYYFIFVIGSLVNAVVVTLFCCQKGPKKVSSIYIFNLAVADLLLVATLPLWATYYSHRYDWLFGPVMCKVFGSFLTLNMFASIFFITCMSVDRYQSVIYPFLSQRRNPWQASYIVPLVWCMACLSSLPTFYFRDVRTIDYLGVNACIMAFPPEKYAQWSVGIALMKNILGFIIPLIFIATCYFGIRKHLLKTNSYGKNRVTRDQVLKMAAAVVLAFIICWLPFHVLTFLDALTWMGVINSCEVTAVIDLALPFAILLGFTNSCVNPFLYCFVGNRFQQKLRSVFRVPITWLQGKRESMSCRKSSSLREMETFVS", "assay": "Test on the AT2 receptor of angiotensin II (displacement of 125I angiotensin II, rabbit uterus membranes)", "type": "binding", "conditions": "rabbit uterus membranes (estradiol pre-treated), 10 mM dithiothreitol preincubation, 25° C., 150 minutes, pH 7.4", "experimental": "2) Test on the AT2 receptor of angiotensin II\nas §1, with “rabbit's uterus” for “rat's liver”, “used, pre-treated 4 days beforehand with 50 ug of estradiol administered by percutaneous route.” for “used.”, “7.4 and” for “7.4,”\nThe last pellets are suspended in an incubation buffer (20 mM Tris, 135 mM NaCl, 10 mM KCl, 5 mM glucose, 10 mM MgCl2 6H2 O), 0.3 mM PMSF, 0.1 mM bacitracin, 0.1 o/oo lysozyme, pH 7.4).\nThe homogenate obtained is preincubated for 20 minutes at 25° C. in the presence of 10 mM dithiothreitol, then brought back to 0°-4° C.\nas §2, with “The” for “(The”, “times.” for “times).”, “determined.” for “determined).”\nas §3, with “[…]” for “non-specific”, “EXP 655 (=PD 123-177 from Warner-Lambert)” for “the product of Example 94 of the European Patent 0,253,310,”, “(in triplicate).” for “(three times).”\nas §4"}, "angiotensin II": {"test_system": "angiotensin II", "assay": "Test for antagonistic activity of angiotensin II in the demedullated rat", "type": "in vivo, rat (male Sprague Dawley)", "conditions": "angiotensin II 0.75 micrograms/kg, read-out: ID50 (50% inhibitory dose of the pressure effect of angiotensin II)"}, "[3]": {"conditions": "IV, injected 5 minutes before angiotensin II"}},
  "note": "pIC50: −log10 of the molar value. Where two headings read alike, the source gives them in different places.",
  "data": [
    {"smiles": "CCCc1nc(SC)c(C(=O)C[S+]([O-])c2ccccc2)n1Cc1ccc(-c2ccccc2S(=O)(=O)NC(=O)NCC2CCCC2)cc1", "note": "(racemic) [Example 46, (±) N-(((cyclopentylmethyl)amino)carbonyl) 4'-((4-(methylthio) 5-((phenylsulphinyl)acetyl) 2-propyl 1H-imidazol 1-yl)methyl) (1,1'-biphenyl) 2-sulphonamide]", "values": [
      {"measurement": "pIC50", "setting": "[1]", "result": 9.40},
      {"measurement": "pIC50", "setting": "[2]", "result": 8.60}
    ]},
    {"smiles": "CCCc1nc(SC)c(C(=O)C[S+]([O-])c2ccccc2)n1Cc1ccc(-c2ccccc2S(=O)(=O)NC(=O)CCC2CCCC2)cc1", "note": "(racemic) [Example 47, (±) N-(4'-((4-(methylthio) 5-((phenylsulphinyl)acetyl) 2-propyl 1H-imidazol 1-yl)methyl) (1,1'-biphenyl-2yl)sulphonyl) cyclopentanepropanamide]", "values": [
      {"measurement": "pIC50", "setting": "[1]", "result": 10.05},
      {"measurement": "pIC50", "setting": "[2]", "result": 8.68}
    ]},
    {"smiles": "CCCCc1nc(SC)c(C(=O)C(=O)O)n1Cc1ccc(-c2ccccc2S(=O)(=O)NC(=O)NCC2CCCCC2)cc1", "note": "[Example 7, 2-butyl 1-((2'-(((((cyclohexylmethyl)amino)carbonyl)amino)sulphonyl) (1,1'-biphenyl) 4-yl)methyl) 4-methylthio alpha oxo-1H-imidazole 5-acetic acid]", "values": [
      {"measurement": "pIC50", "setting": "[1]", "result": 9.15},
      {"measurement": "pIC50", "setting": "[2]", "result": 8.17}
    ]},
    {"smiles": "CCCCc1nc(SC)c(C(=O)C[S+](C)[O-])n1Cc1ccc(-c2ccccc2S(=O)(=O)NC(=O)NCc2ccccc2)cc1", "note": "(stereo not drawn) [Example 9, 4'-((2-butyl 5-(2-(methylsulphinyl)acetyl) 4-(methylthio) 1H-imidazol 1-yl)methyl) N-(((phenylmethyl)amino)carbonyl) (1,1'-biphenyl) 2-sulphonamide]", "values": [
      {"measurement": "pIC50", "setting": "[1]", "result": 9.52},
      {"measurement": "pIC50", "setting": "[2]", "result": 7.82},
      {"measurement": "ED50", "setting": "angiotensin II; [3]", "result": 0.06, "unit": "mg/kg"},
      {"measurement": "ED50", "setting": "angiotensin II; PO", "result": 0.7, "unit": "mg/kg"}
    ]},
    {"smiles": "CCCCc1nc(SC)c(C(=O)C(=O)O)n1Cc1ccc(-c2ccccc2S(=O)(=O)NC(=O)NCc2ccccc2)cc1", "note": "[Example 10, 2-butyl 4-(methylthio) alpha oxo 1-((2'-(((((phenylmethyl)amino)carbonyl)amino)sulphonyl) (1,1'-biphenyl) 4-yl)methyl) 1-H-imidazole 5-acetic acid]", "values": [
      {"measurement": "pIC50", "setting": "[1]", "result": 9.74},
      {"measurement": "pIC50", "setting": "[2]", "result": 7.42}
    ]},
    {"smiles": "CCCCc1nc(SC)c(C(=O)C(=O)NCc2ccccc2)n1Cc1ccc(-c2ccccc2S(=O)(=O)NC(=O)NCc2ccccc2)cc1", "note": "[Example 11, 2-butyl 4-(methylthio) alpha oxo N-(phenylmethyl) 1-((2'-(((((phenylmethyl)amino)carbonyl)amino)sulphonyl) (1,1'-biphenyl) 4-yl)methyl) 1-H-imidazole 5-acetamide]", "values": [
      {"measurement": "pIC50", "setting": "[1]", "result": 9.22},
      {"measurement": "pIC50", "setting": "[2]", "result": 7.28}
    ]},
    {"smiles": "CCCCc1nc(SC)c(C(=O)CC(=O)OCC)n1Cc1ccc(-c2ccccc2S(=O)(=O)NC(=O)NCCC)cc1", "note": "[Example 12]", "values": [
      {"measurement": "pIC50", "setting": "[1]", "result": 9.70},
      {"measurement": "pIC50", "setting": "[2]", "result": 7.08}
    ]},
    {"smiles": "CCCCc1nc(SC)c(C(=O)Nc2nnn[nH]2)n1Cc1ccc(-c2ccccc2S(=O)(=O)NC(=O)NCCC)cc1", "note": "[Example 13]", "values": [
      {"measurement": "pIC50", "setting": "[1]", "result": 9.62},
      {"measurement": "pIC50", "setting": "[2]", "result": 7.62},
      {"measurement": "ED50", "setting": "angiotensin II; [3]", "result": 0.12, "unit": "mg/kg"}
    ]},
    {"smiles": "CCCc1nc(SC)c(C(=O)Nc2nn[nH]n2)n1Cc1ccc(-c2ccccc2S(=O)(=O)NC(=O)NCc2ccccc2)cc1", "note": "[Example 15, 4-(methylthio) 1-((2'-(((((phenylmethyl)amino)carbonyl)amino)sulphonyl) (1,1'-biphenyl) 4-yl)methyl) 2-propyl N-(2H-tetrazol 5-yl) 1H-imidazole 5-carboxamide]", "values": [
      {"measurement": "pIC50", "setting": "[1]", "result": 9.70},
      {"measurement": "pIC50", "setting": "[2]", "result": 8.70}
    ]},
    {"smiles": "CCCc1nc(SC)c(C(=O)C[S+]([O-])c2ccccc2)n1Cc1ccc(-c2ccccc2S(=O)(=O)NC(=O)NCc2ccccc2)cc1", "note": "(stereo not drawn) [Example 20, 4'-((4-(methylthio) 5-(2-(phenylsulphinyl)acetyl) 2-propyl 1H-imidazol-1-yl)methyl) N-(((phenylmethyl)amino)carbonyl) (1,1'-biphenyl) 2-sulphonamide]", "values": [
      {"measurement": "pIC50", "setting": "[1]", "result": 10.10},
      {"measurement": "pIC50", "setting": "[2]", "result": 9.10},
      {"measurement": "ED50", "setting": "angiotensin II; [3]", "result": 0.04, "unit": "mg/kg"},
      {"measurement": "ED50", "setting": "angiotensin II; PO", "result": 0.8, "unit": "mg/kg"}
    ]},
    {"smiles": "CCCCc1nc(SC)c(C(=O)CC(=O)OCC)n1Cc1ccc(-c2ccccc2S(=O)(=O)NC(=O)NCc2ccccc2)cc1", "note": "[Example 21, ethyl 2-butyl 4-(methylthio) beta-oxo-1-((2'-(((((phenylmethyl)amino)carbonyl)amino)sulphonyl) (1,1'-biphenyl) 4-yl)methyl) 1H-imidazole 5-propanoate]", "values": [
      {"measurement": "pIC50", "setting": "[1]", "result": 10.10},
      {"measurement": "pIC50", "setting": "[2]", "result": 9.00},
      {"measurement": "ED50", "setting": "angiotensin II; [3]", "result": 0.08, "unit": "mg/kg"}
    ]},
    {"smiles": "CCCc1nc(SC)c(C(=O)C[S+]([O-])c2ccccc2)n1Cc1ccc(-c2ccccc2S(=O)(=O)NC(=O)NCc2cccs2)cc1", "note": "(stereo not drawn) [Example 34, 4'-((4-(methylthio) 5-((phenylsulphinyl)acetyl) 2-propyl 1H-imidazol-1-yl)methyl) N-(((2-thienylmethyl)amino)carbonyl) (1,1'-biphenyl) 2-sulphonamide]", "values": [
      {"measurement": "pIC50", "setting": "[1]", "result": 10.30},
      {"measurement": "pIC50", "setting": "[2]", "result": 8.66}
    ]}
  ]
}
